Experimental data as given in patent US9393225B2, “Melanoma chemoprevention” (University of Pittsburgh—Of the Commonwealth System of …, priority 2012, dated 2016).
Read-outs that look alike come from different tables or passages of the source.

Tests used:
[1] = test system: SK-MEL37; settings: different concentrations of SFN for 24, 48, or 72 h, FIG. 1
[2] = test system: SK-MEL 31 cells; settings: 24 hours
Procedure: (§1) Apoptosis induction in SFN-treated SK-MEL 31 cells was assessed by (i) quantification of cytoplasmic histone associated DNA fragments, (ii) Western blot analysis for PARP cleavage and (iii) DAPI dye for nuclear morphology assay. For quantification of cytoplasmic histone-associated DNA fraction, SK-MEL 31 cells were seeded at 4×10^3 cells/well in 96-well plate and allowed to attach overnight. […] After 24 hours, the floating and attached cells were pelleted and lysed with lysis buffer supplied with the cell death detection ELISA kit, lysates were assayed for apoptosis according to the manual. SK-MEL 31 cells were seeded at 1×10^4 cells/well on a round glass coverslip in 12 well plates. Cells were then incubated for 24 hours with 0, 10, or 20 μM SFN, attached cells were fixed with 3% paraformaldehyde in PBS, permeabilized with 1% TRITON® X-100, stained with DAPI dye and inspected under a fluorescent microscope after stained with DAPI.

[3] = test system: PARP; settings: 20 μM SFN, from 16 to 24 hour after treatment
Procedure: as §1
Cell lysate was cleared by centrifugation at 16000 rpm for 15 min. Lysate proteins were resolved by SDS-PAGE gel electrophoresis and transferred onto nitrocellulose membrane. The membrane was immersed into a phosphate buffered saline (PBS) solution containing 0.2% TWEEN® 20 and 5% (w/v) non-fat dry milk, and then incubated with desired primary antibody for 1 hour at room temperature. […]

[4] = test system: Bax and Bak; settings: 20 μM SFN
Procedure: (§2) Cell lysate was cleared by centrifugation at 16000 rpm for 15 min. Lysate proteins were resolved by SDS-PAGE gel electrophoresis and transferred onto nitrocellulose membrane. The membrane was immersed into a phosphate buffered saline (PBS) solution containing 0.2% TWEEN® 20 and 5% (w/v) non-fat dry milk, and then incubated with desired primary antibody for 1 hour at room temperature. After incubation with appropriate secondary antibody, the immunoreactive bands were visualized using enhanced chemiluminescence method. The conjugated horseradish peroxidase (HRP) secondary antibody was deactivated with sodium azide, then membranes were re-probed with anti-actin antibody to standardize protein loading. For cytochrome c and Smac/DIABLO, the cytosolic fractions were prepared with the PROTEOEXTRACT™ Subcellular Proteome Extraction kit according to the manufacturer's instructions and Western blot analysis were performed as described above.

[5] = test system: Bcl-2; settings: 20 μM SFN, all time points
Procedure: as §2

[6] = test system: Bcl-XL; settings: 20 μM SFN, evident from the 2 hour time point
Procedure: as §2

[7] = test system: Smac and cytochrome c; settings: SFN incubation; significant increases after 8 hours
Procedure: as §2

[8] = test system: cIAP1 and XIAP; settings: SFN treatment, with time increasing
Procedure: as §2

[9] = test system: procaspase-9, procaspase-8 and procaspase-3; settings: 20 μM SFN, 24 hour time point
Procedure: as §2

[10] = test system: caspase-8; settings: 20 μM SFN
Excerpt: (§3) RPMI 1640, penicillin/streptomycin antibiotic mixture, and fetal bovine serum were from Gibco (Grand Island, N.Y.), propidium iodide and 4′,6′-diamidino-2-phenylindole-dihydrochloride (DAPI) were from Sigma (St Louis, Mo.). LIPOFECTAMINE 2000™ and G418 were purchased from Invitrogen (Carlsbad, Calif.). RNaseA was purchased from Promega (Madison, Wis.), and the reagents for electrophoresis were from Bio-Rad (Hercules, Calif.). Antibodies for Bcl-XL, Bak and cytochrome c were purchased from Santa Cruz Biotechnology (Santa Cruz, Calif.), antibodies specific for Bax, Smac/DIABLO, cleaved caspase-3 and cleaved caspase-8, cleaved caspase-9, cIAP1 and poly (ADP-ribose) polymerase (PARP) were purchased from Cell Signaling Technology (Beverly, Mass.), anti Bcl-2 antibody was purchased from Dakocytomation (Denmark), anti XIAP (X-linked inhibitor of apoptosis) antibody was purchased from BD PharMingen (San Diego, Calif.). Anti actin antibody was purchased from Oncogene Research Products (Boston, Mass.). The caspase inhibitors z-VAD fmk (general caspase inhibitor), z-IETD fmk (caspase-8 specific inhibitor) and z-LEHD fmk (caspase-9 specific inhibitor) were purchased from MP Biochemicals (Aurora, Ohio). The caspase-8 and caspase-9 colorimetric assay kits were purchased from R&D systems (Minneapolis, Minn.). Cytoplasmic histone associated DNA fragments detection ELISA kit was purchased from Roche Diagnostics GmbH (Mannheim, Germany). ProteoExtract™ Subcellular Proteome Extraction kit was purchased from Calbiochem (San Diego, Calif.).
(§4) Caspases are aspartate-specific cysteine proteases that play critical roles in apoptosis. Activation of caspases results in cleavage and inactivation of key cellular proteins, including the DNA repair enzyme PARP.

[11] = test system: caspase-9; settings: 20 μM SFN, 24 hours
Excerpt: as §3, §4

[12] = test system: Cyclin B1, Cdk1, and Cdc25; settings: SK-MEL31 cells, 20 μM SFN; FIG. 2
Excerpt: The blots were stripped and re-probed with anti-actin antibody to normalize for differences in protein loading.

[13] = mice, at the doses used
Procedure: (§5) Female athymic mice (6-week-old) were purchased from Taconic (Germantown, N.Y.). SK-MEL 31 cells were suspended in pharmacological grade normal saline, and 0.1 ml suspension containing 5×10^6 cells was injected subcutaneously on right flank of each mouse. Mice were randomized into two groups of 10 mice per group. Experimental animals were gavaged with SFN (5.6 μmol SFN in 0.1 ml normal saline) three times per week (Monday, Wednesday and Friday) beginning two weeks before tumor implantation. Control mice received an equal volume of the vehicle. Tumor volume was determined based on measurement of the length and width of the tumor, […]. Statistical significance of difference in tumor volume was assessed by Student's t-test. Upon the termination of the experiment, the tumor tissues were harvested and processed for analysis of apoptotic bodies by immunohistochemistry method. Tumor tissues were embedded in paraffin, sectioned (6 μm), de-paraffinized and processed for determination of apoptotic bodies using APOTAG® Plus Peroxidase In Situ Apoptosis detection kit (Intergen, NY) according to the manufacturer's instructions. Brown color apoptotic bodies in tumor sections of control and SFN-treated group were counted by two pathologists independently and blindly under a microscope at 400× magnification. Four randomly selected fields on each tumor section were counted for apoptotic bodies.

[14] = test system: SK-MEL 31 xenografts
Procedure: as §5

[15] = test system: SK-MEL 31 cells; settings: 20 μM SFN, 24 hours, p<0.05
[16] = test system: STAT3; settings: administered orally to SCID mice; FIG. 3
[17] = test system: SK-MEL 31 cells; assay: Trypan blue dye exclusion assay (cell proliferation / viability); settings: for number of viable cells compared with control: 24 hour

cleavage of procaspase-9, procaspase-8 and procaspase-3 [9]: resulted in cleavage
SMILES: C[S+]([O-])CCCCN=C=S (centres unmarked) [SFN, 1-isothiocyanato-4-(methylsulfinyl)-butane]
melanoma cell growth in vitro (cell viability) [1]: inhibits melanoma cell growth in vitro | increase in cytoplasmic histone associated DNA fragments compared with DMSO treated control ([2]; 5 μM SFN): ~4.7 fold | increase in cytoplasmic histone associated DNA fragments compared with DMSO treated control ([2]; 10 μM SFN): ~11.4 fold | condensed nucleus ratio ([2]; SFN 10 or 20 μM, FIG. 5C): increased significantly | PARP cleavage [3]: obvious increase of PARP cleavage | Bax and Bak protein level [4]: no significant level changes | Bcl-2 protein level [5]: No marked change | Bcl-XL protein level [6]: down-regulation | cytosolic levels of Smac and cytochrome c [7]: time-dependent increases | cIAP1 and XIAP level [8]: consecutive cIAP1 and XIAP level decreases | caspase-8 activity increase compared with the control group ([10]; 16 hour): 45% | caspase-8 activity increase compared with the control group ([10]; 24 hour): 73% | increase in caspase-9 activity [11]: 148% | melanoma cell Cyclin B1, Cdk1, and Cdc25 [12]: inhibits | side effect (weight loss, organ weight difference) [13]: No side effect was observed | reduction in tumor volume ([14]; 16 days after tumor implantation, versus control, p<0.01): 50% | average tumor volume ([14]; 16 days after tumor implantation, gavage 5.6 μmol SFN three times per week): 154.4±95.4 mm^3 | tumor wet weight ([14]; oral SFN versus control, p<0.01): significant decrease | count of apoptotic bodies in tumor sections versus controls (TUNEL assay) ([14]; oral SFN, p<0.05): ~4.4 fold | cell cycle distribution [15]: significantly increase of Sub-G0/G1 and G2M phase and decreased G0/G1 phase cell number | STAT3 expression in human melanoma cells transplanted into mice [16]: lowered STAT3 expression | number of viable cells compared with control ([17]; 10 μM SFN): 58% | number of viable cells compared to control ([17]; 10 μM SFN, 48 hour): 27% | number of viable cells compared to control ([17]; 10 μM SFN, 72 hour): 19% | number of viable cells compared with control ([17]; 20 μM SFN): 46% | number of viable cells compared to control ([17]; 20 μM SFN, 48 hour): 23% | number of viable cells compared to control ([17]; 20 μM SFN, 72 hour): 13% | number of viable cells compared with control ([17]; 40 μM SFN): 26% | number of viable cells compared to control ([17]; 40 μM SFN, 48 hour): 10% | number of viable cells compared to control ([17]; 40 μM SFN, 72 hour): 10% | melanoma cell growth in vitro (cell viability) ([17]; SK-MEL31, different concentrations of SFN for 24, 48, or 72 h, FIG. 1): inhibits melanoma cell growth in vitro
